Literature values, collected in PMC3845493 (Molecular pharmaceutics, 2013).

For “PARVGLGITTVLTMTTQSSGSRA [Peptide M2GlyR]”, the “Aggregation in aqueous solutions” value is given as “tendency to aggregate in aqueous solutions”.
